Data set [1] in a line: Chemical stability assay in PBS. In kind it is physicochemical. The method, then: The quantitative HPLC analyses were acquired using Waters Alliance e2695 separations module (Waters, Milford, CT, USA) containing 2998 photodiode array (PDA), a detector (Waters, Milford, CT, USA), and the SpeedROD RP-18e 50–4.6 mm column (Merck, KGaA, Darmstadt, Germany). The temperature of the column was preserved at 30 °C. […] Each sample was injected at a volume of 10 μL in triplicate. […] The stock solutions were mixed with methanol and diluted, resulting in various solutions with concentrations ranging from 1.0 to 0.125 μg/mL. These solutions were then utilized to generate calibration curves by plotting AUC versus concentration in μg/mL. The examined molecules (2 mg) were dissolved in 1 mL of Dulbecco’s phosphate buffered saline (DPBS). The mixture was then continuously agitated at 22 °C for 24 h using a thermoshaker. Following this period, the mixtures were filtered through a cellulose acetate syringe filter (with a pore size of 0.22 μm), moved to a chromatographic vial, and analyzed. To quantify the investigated compounds, the areas beneath their respective peaks on DAD chromatograms were employed. Solubility was calculated using the calibration curves. Chemical stability assay: Stock solution of 16 in DMSO (10 mg/mL) was used. Next, 25 μL of stock solution was mixed with 975 μL of PBS (Dulbecco’s phosphate-buffered saline, Sigma, Poland). […] HPLC analyses were used to quantify the percentage of molecules that remained at each time point relative to the 0 min time point. Brain tissue stability assay: […] Then, 50 μL of the stock solution was combined with 50 μL of ice-cold 50 mM Tris-HCl buffer (pH 7.4) and 150 μL of brain homogenate (suspended in 20 volumes of 50 mM Tris-HCl buffer, ice cold, pH 7.4). The mix was then incubated at 37 °C and quenched at several time points. To terminate the reaction mixture, 250 μL of the appropriate reaction mixture was mixed with 1000 μL of MeCM in the Eppendorf Tube. Following 10 min of shaking (1500 rpm), samples were centrifuged (10 000 rpm, 10 min, 4 °C) and the acquired supernatant was collected. Before conducting HPLC analysis, the supernatant was filtered via a cellulose acetate syringe filter with a pore size of 0.45 μm and then transferred to a chromatographic vial. HPLC analysis was used to determine the percentage of the tested molecule remaining at each time point, relative to the 0 min time point. Plasma stability assay was performed as described previously.[45] Frozen rat plasma (Wistar) was thawed. […] The samples were collected at relative time points. The reaction was terminated by adding 1200 of μL acetonitrile/methanol mixture (50:50, v/v). The samples were centrifuge at 25 000 rpm for 10 min. HPLC analysis was used to determine the percentage of the tested molecule remaining at each time point relative to the 0 min time point. All the experiments were performed in duplicate.

For the next data set, the system named is BV-2 microglia cells. Kind of data set: Anti-inflammatory assessment in LPS-stimulated BV-2 cells (NO, ROS, IL-6, TNF-α). The conditions noted are these: 10 μM pretreatment 1 h, then LPS 18 h. It counts as cell-based, mouse. As to the method: Mouse microglial (BV-2) cell line was a generous gift from Prof. Bożena Kamińska-Kaczmarek of the Nencki Institute of Experimental Biology, Polish Academy of Sciences, Warsaw, Poland. The cell culture medium: Dulbecco’s modified with high glucose (DMEM, Glutamx ThermoFisher) and supplemented with 10% inactivated fetal bovine serum heat (ThermoFisher), 100 IU/mL penicillin (Merck) and 100 μg/mL streptomycin (Merck). Cell culture conditions: culture flasks (area 175 cm^2, Nunc), temperature of 37 °C, 5% CO2. For the assessment of the effect of tested compounds on the quantities of reactive oxygen species, nitric oxide, and inflammatory markers, the BV-2 cells were positioned in a 96-well culture plate (5 × 10^4 cells per well, Falcon). In the case of cell membrane damage assay, a 96-well culture plate (2 × 10^4 cells per well, Falcon) was used. The cells were cultured in the incubator (37 °C, 5% CO2) for 24 h prior to the assay. The tested compounds were dissolved in DMSO to achieve the concentration of 10^–2 M. Serial dilutions of the compounds were prepared in PBS and added directly to the medium containing adherent cells. The resulting mixtures were examined for any evidence of precipitation or opalescence before the assay. BV-2 cells were incubated with selected molecules (6, 16 at a concentration of 10 μM) during 1 h. Subsequently, lipopolysaccharide (100 ng/mL) was added and the resulting mixture was incubated for 18 h. Next, the culture supernatant was collected to measure the levels of nitric oxide (NO), reactive oxygen species (ROS), IL-6, and TNF-α according to the procedures described in detail below. All experiments were performed in duplicates, in three independent experiments.
The quantities of NO produced by the cells were determined using DAN reagent (2,3-diaminonaphthalene), rendering the method protocol described by Nussler et al.[48] After incubating at room temperature for 15 min, the fluorescence intensity (EX 360; EM 440 nm) was measured using a microplate reader POLARstar Omega from BMG Labtech. The amounts of NO were then calculated as a percentage of the control (which represents the maximal response of LPS). ROS measurement. The fluorescent dye 2,7-dichlorodihydrofluorescein diacetate (DCFH-DA)[49] was utilized to determine the quantity of ROS released by BV-2 cells. After a 30 min incubation period at 37 °C with 10 μM DCFH-DA, the fluorescence intensity (EX 490; EM 520 nm) was examined using a microplate reader POLARstar Omega from BMG Labtech. The amounts of ROS were then expressed as a percentage of the control (which represents the maximal response of LPS). The IL-6 and TNF-α levels detected in the culture supernatants were quantified using LANCE Ultra TR-FRET detection kit (PerkinElmer), rendering the manufacturer’s procedure. The detection of IL-6 and TNF-α was performed independently in a 384-well plate according to the instructions provided. To each well of the plate, 15 μL of sample was added followed by the addition of 5 μL of premixed antibody solution. After incubating IL-6 for 1 h and TNF-α for 3 h in the absence of light, at 22 °C, the plates were transferred to an EnVision plate reader (PerkinElmer). Measurements were conducted at 320 nm wavelength for excitation, at 615 nm for donor emission, and at 660 nm for acceptor emission. The final data were determined as the ratio of the 660 nm signal to the 615 nm signal. The results represent the levels of each cytokine determined as a percentage of control (considered as maximal cell response to LPS). The GraphPad program was used to conduct statistical analysis, with all outcomes presented as mean values with standard deviation (SD). Differences between groups were assessed using one-way ANOVA, followed by post hoc analysis (Dunnett’s multiple comparison tests). Results were considered statistically significant if the p-value was less than 0.05. […]

Take `Cc1c(OCc2ccccc2)cccc1N1CCN(CCOC(=O)CCCN)CC1.Cl.Cl` [Compound 16, 1-(2-((4-Ammoniobutanoyl)oxy)ethyl)-4-(3-(benzyloxy)-2-methylphenyl)piperazin-1-ium Dichloride]: the “% compound remaining, rt” value was 100 ± 0.2% in data set [1] (0 min); 98.43 ± 1.8% in data set [1] (15 min); 94.23 ± 1.8% in data set [1] (30 min); 92.46 ± 2.2% in data set [1] (60 min); 86.63 ± 2.3% in data set [1] (120 min); 62.21 ± 1.7% in data set [1] (240 min). For the same compound, in the data set with BV-2 microglia cells, the “LPS-induced IL-6 production” value is on record as “significantly decreased”. The “LPS-induced NO production” value with BV-2 microglia cells is listed as “significantly decreased”. Also, the “LPS-induced ROS production” value with BV-2 microglia cells is reported as “significantly decreased”. Moreover, the “LPS-induced TNF-α production” value in the data set on BV-2 microglia cells was “significantly decreased”.

Values taken from publication PMC10119930, “Dual Molecules Targeting 5-HT6 and GABA-A Receptors as a New Approach to Combat Depression Associated with Neuroinflammation” (ACS Chemical Neuroscience, 2023).
